Assay results from patent publication US20060089375A1, “Pyrazolo[3,4-b] pyridine compounds, and their use as phosphodiesterase inhibitors” (priority 2002, published 2006).

How the values were obtained:
[1] = target: T1, PDE4B (human recombinant) (Homo sapiens, UniProt Q07343); experiment: Inhibition of PDE4B activity: radioactive SPA or IMAP Fluorescence Polarisation (FP) assay; assay type: biochemical; settings: PDE4B inhibitory activity, one reading or average of ca. 2-6 readings, read-out: PDE4B pIC50 (± about 0.5) (converted)
T1 construct: made in house
T1 sequence (Q07343 1-564 isoform Q07343-2): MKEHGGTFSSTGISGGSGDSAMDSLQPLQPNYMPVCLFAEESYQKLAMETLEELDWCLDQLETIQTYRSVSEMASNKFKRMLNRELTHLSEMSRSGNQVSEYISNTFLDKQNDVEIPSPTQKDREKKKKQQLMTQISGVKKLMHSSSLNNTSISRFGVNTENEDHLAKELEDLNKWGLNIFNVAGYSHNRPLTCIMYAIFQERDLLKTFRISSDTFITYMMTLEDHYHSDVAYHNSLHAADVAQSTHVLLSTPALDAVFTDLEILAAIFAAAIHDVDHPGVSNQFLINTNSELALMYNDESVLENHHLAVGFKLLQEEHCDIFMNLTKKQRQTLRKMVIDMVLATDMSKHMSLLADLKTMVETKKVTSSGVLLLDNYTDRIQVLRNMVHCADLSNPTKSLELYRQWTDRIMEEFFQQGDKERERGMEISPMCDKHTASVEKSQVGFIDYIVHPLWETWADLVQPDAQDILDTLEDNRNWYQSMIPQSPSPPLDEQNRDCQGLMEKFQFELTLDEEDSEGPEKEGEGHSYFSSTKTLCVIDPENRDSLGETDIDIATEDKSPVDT
Excerpt: Human recombinant PDE4B, in particular the 2B splice variant thereof (HSPDE4B2B), is disclosed in WO 94/20079 and also M. M. McLaughlin et al., “A low Km, rolipram-sensitive, cAMP-specific phosphodiesterase from human brain: cloning and expression of cDNA, biochemical characterisation of recombinant protein, and tissue distribution of mRNA”, J. Biol. Chem., 1993, 268, 6470-6476. For example, in Example 1 of WO 94/20079, human recombinant PDE4B is described as being expressed in the PDE-deficient yeast Saccharomyces cerevisiae strain GL62, e.g. after induction by addition of 150 uM CuSO4, and 100,000×g supernatant fractions of yeast cell lysates are described for use in the harvesting of PDE4B enzyme.
The ability of compounds to inhibit catalytic activity at PDE4B or 4D (human recombinant), PDE3 (from bovine aorta), PDE5 (human recombinant) or PDE6 (from bovine retina) was determined by Scintillation Proximity Assay (SPA) in 96-well format. Test compounds (preferably as a solution in DMSO, e.g. 0.5 to 1 microlitre (ul) volume) were preincubated at ambient temperature (room temperature, e.g. 19-23° C.) in Wallac Isoplates (code 1450-514) with PDE enzyme in 50 mM Tris-HCl buffer pH 7.5, 8.3 mM MgCl2, 1.7 mM EGTA, 0.05% (w/v) bovine serum albumin for 10-30 minutes (usually 30 minutes). The enzyme concentration was adjusted so that no more than 20% hydrolysis of the substrate defined below occurred in control wells without compound, during the incubation. For the PDE3, PDE4B and PDE4D assays, [5′,8-^3H]Adenosine 3′,5′-cyclic phosphate (Amersham Pharmacia Biotech, code TRK.559; or Amersham Biosciences UK Ltd, Pollards Wood, Chalfont St Giles, Buckinghamshire HP8 4SP, UK) was added to give 0.05 uCi per well and ˜10 nM final concentration. For the PDE5 and PDE6 assays, [8-^3H]Guanosine 3′,5′-cyclic phosphate (Amersham Pharmacia Biotech, code TRK.392) was added to give 0.05 uCi per well and ˜36 nM final concentration. Plates, e.g. containing approx. 100 ul volume of assay mixture, were mixed on an orbital shaker for 5 minutes and incubated at ambient temperature for 1 hour. Phosphodiesterase SPA beads (Amersham Pharmacia Biotech, code RPNQ 0150) were added ([…] per well) to terminate the assay. Plates were sealed and shaken and allowed to stand at ambient temperature for 35 minutes to 1 hour (preferably 35 minutes) to allow the beads to settle. Bound radioactive product was measured using a WALLAC TRILUX 1450 Microbeta scintillation counter. For inhibition curves, 10 concentrations (1.5 nM-30 uM) of each compound were assayed. Curves were analysed using ActivityBase and XLfit (ID. Business Solutions Limited, 2 Ocean Court, Surrey Research Park, Guildford, Surrey GU2 7QB, United Kindgom) Results were expressed as pIC50 values.
The ability of compounds to inhibit catalytic activity at PDE4B (human recombinant) or PDE4D (human recombinant) was determined by IMAP Fluorescence Polarisation ([…]) assay (IMAP Explorer kit, available from Molecular Devices Corporation, Sunnydale, Calif., USA; Molecular Devices code: R^8062) in 384-well format. The IMAP FP assay is able to measure PDE activity in an homogenous, non-radioactive assay format. The FP assay uses the ability of immobilised trivalent metal cations, coated onto nanoparticles (tiny beads), to bind the phosphate group of Fl-AMP that is produced on the hydrolysis of fluorescein-labelled (Fl) cyclic adenosine mono-phosphate (Fl-cAMP) to the non-cyclic Fl-AMP form. […] Binding of Fl-AMP product to the beads (coated with the immobilised trivalent cations) slows the rotation of the bound Fl-AMP and leads to an increase in the fluorescence polarisation ratio of parallel to perpendicular light. Inhibition of the PDE reduces/inhibits this signal increase. […]

[2] = Particle size analysis of micronised material by laser diffraction (Malvern Mastersizer); assay type: physicochemical
Excerpt: For pharmaceutical compositions suitable and/or adapted for inhaled administration, it is preferred that the compound or salt of formula (I) is in a particle-size-reduced form, and more preferably the size-reduced form is obtained or obtainable by micronisation. Micronisation usually involves subjecting the compound/salt to collisional and abrasional forces in a fast-flowing circular or spiral/vortex-shaped airstream often including a cyclone component. The preferable particle size (e.g. D50 value) of the size-reduced (e.g. micronised) compound or salt is about 0.5 to about 10 microns, e.g. about 1 to about 5 microns (e.g. as measured using laser diffraction). For example, it is preferable for the compound or salt of formula (I to have a particle size defined by: a D10 of about 0.3 to about 3 microns (e.g. about 1 micron), and/or a D50 of about 1 to about 5 microns (e.g. about 2-5 or about 2-3 microns), and/or a D90 of about 2 to about 20 microns or about 3 to about 10 microns (e.g. about 5-8 or about 5-6 microns); for example as measured using laser diffraction. The laser diffraction measurement can use a dry method (suspension of compound/salt in airflow crosses laser beam) or a wet method [suspension of compound/salt in liquid dispersing medium, such as isooctane or (e.g. if compound soluble in isooctane) 0.1% Tween 80 in water, crosses laser beam]. With laser diffraction, particle size is preferably calculated using the Fraunhofer calculation; and/or preferably a Malvern Mastersizer or Sympatec apparatus is used for measurement.
Particle size analysis of Example 518 micronised material from Procedure 2, using laser diffraction measurement with Malvern Mastersizer longbed version, dispersing medium 0.1% Tween 80 in water, stir rate 1500 rpm, 3 mins sonification prior to final dispersion and analysis, 300 RF Reverse Fourier) lens, Fraunhofer calculation with Malvern software: • material from collection vessel: D10=0.97 microns, D50=3.86 microns, D90=12.64 microns. • material from inside walls of cyclone: D10=0.95 microns, D50=3.42 microns, D90=9.42 microns.

[3] = micronised material Procedure 2, material from collection vessel
[4] = micronised material Procedure 2, material from inside walls of cyclone

Compound	IC50 [1]	also measured
CCn1ncc2c(NC3CCOCC3)c(C(=O)NCc3ccc(C)c(C)c3)cnc21 [Example 518, N-[(3,4-dimethylphenyl)methyl]-1-ethyl-4-(tetrahydro-2H-pyran-4-ylamino)-1H-pyrazolo[3,4-b]pyridine-5-carboxamide]	0.1 to 6.31 nM	particle size D10 [2, 3]: 0.97 microns; particle size D50 [2, 3]: 3.86 microns; particle size D90 [2, 3]: 12.64 microns; particle size D10 [2, 4]: 0.95 microns; particle size D50 [2, 4]: 3.42 microns; particle size D90 [2, 4]: 9.42 microns
CCn1ncc2c(NC3CCC(=O)CC3)c(C(=O)NCc3cccc(Cl)c3Cl)cnc21 [Example 677, N-[(2,3-Dichlorophenyl)methyl]-1-ethyl-4-[(4-oxocyclohexyl)amino]-1H-pyrazolo[3,4-b]pyridine-5-carboxamide]	0.1 to 6.31 nM	
CCn1ncc2c(NC3CCC(=O)CC3)c(C(=O)NCc3ccc(C)c(Cl)c3)cnc21 [Example 678, N-[(3-Chloro-4-methylphenyl)methyl]-1-ethyl-4-[(4-oxocyclohexyl)amino]-1H-pyrazolo[3,4-b]pyridine-5-carboxamide]	0.1 to 6.31 nM	
CCn1ncc2c(NC3CCC(=NO)CC3)c(C(=O)NCc3ccc(OC(F)F)cc3)cnc21 (stereo not drawn) [Example 685, N-({4-[(Difluoromethyl)oxy]phenyl}methyl)-1-ethyl-4-{[4-(hydroxyimino)cyclohexyl]amino}-1H-pyrazolo[3,4-b]pyridine-5-carboxamide]	0.1 to 6.31 nM	
CCn1ncc2c(NC3CCC(=NO)CC3)c(C(=O)NCc3ccc(C(F)(F)F)cc3)cnc21 (stereo not drawn) [Example 686, 1-Ethyl-4-{[4-(hydroxyimino)cyclohexyl]amino}-N-{[4-(trifluoromethyl)phenyl]methyl}-1H-pyrazolo[3,4-b]pyridine-5-carboxamide]	0.1 to 6.31 nM	

The next lines start with results.

IC50 [1]	Compound	also measured
0.1 to 6.31 nM	CCn1ncc2c(NC3CCC(=NO)CC3)c(C(=O)NCc3ccc(OC)cc3)cnc21 (stereo not drawn) [Example 653, 1-Ethyl-4-{[4-(hydroxyimino)cyclohexyl]amino}-N-{[4-(methyloxy)phenyl]methyl}-1H-pyrazolo[3,4-b]pyridine-5-carboxamide]	
0.1 to 6.31 nM	CCn1ncc2c(NC3CCC(=O)CC3)c(C(=O)NCc3ccc(Cl)cc3C)cnc21 [Example 679, N-[(4-Chloro-2-methylphenyl)methyl]-1-ethyl-4-[(4-oxocyclohexyl)amino]-1H-pyrazolo[3,4-b]pyridine-5-carboxamide]	
0.1 to 6.31 nM	CCn1ncc2c(NC3CCC(=NO)CC3)c(C(=O)NCc3ccc(C)cc3C)cnc21 (stereo not drawn) [Example 680, N-[(2,4-Dimethylphenyl)methyl]-1-ethyl-4-{[4-(hydroxyimino)cyclohexyl]amino}-1H-pyrazolo[3,4-b]pyridine-5-carboxamide]	
0.1 to 6.31 nM	CCn1ncc2c(NC3CCC(=NO)CC3)c(C(=O)NCc3ccc(C)c(C)c3)cnc21 (stereo not drawn) [Example 681, N-[(3,4-dimethylphenyl)methyl]-1-ethyl-4-{[4-(hydroxyimino)cyclohexyl]amino}-1H-pyrazolo[3,4-b]pyridine-5-carboxamide]	
0.1 to 6.31 nM	CCn1ncc2c(NC3CCC(=NO)CC3)c(C(=O)NCc3cccc(Cl)c3Cl)cnc21 (stereo not drawn) [Example 682, N-[(2,3-Dichlorophenyl)methyl]-1-ethyl-4-{[4-(hydroxyimino)cyclohexyl]amino}-1H-pyrazolo[3,4-b]pyridine-5-carboxamide]	
0.1 to 6.31 nM	CCn1ncc2c(NC3CCC(=NO)CC3)c(C(=O)NCc3ccc(C)c(Cl)c3)cnc21 (stereo not drawn) [Example 683, N-[(3-Chloro-4-methylphenyl)methyl]-1-ethyl-4-{[4-(hydroxyimino)cyclohexyl]amino}-1H-pyrazolo[3,4-b]pyridine-5-carboxamide]	
0.1 to 6.31 nM	CCn1ncc2c(NC3CCC(=NO)CC3)c(C(=O)NCc3ccc(Cl)cc3C)cnc21 (stereo not drawn) [Example 684, N-[(4-Chloro-2-methylphenyl)methyl]-1-ethyl-4-{[4-(hydroxyimino)cyclohexyl]amino}-1H-pyrazolo[3,4-b]pyridine-5-carboxamide]	
